Laboratory results: patent US4946855A, “Carboxamide derivatives having tetrazole and thiazole rings and their use” (Sawai Pharmaceutical Co., Ltd., priority 1987, dated 1990)

The compounds below were run on 48-Hours PCA (passive cutaneous anaphylaxis) (assay: Test Example 2: Anti-passive cutaneous anaphylaxis (PCA) activity in rats, 48-Hours PCA (Ib compounds)). Conditions: Rattus norvegicus, po, 20 mg/kg, P.O., 1 hour before the elicitation.
Assay type: in vivo, rat (Wistar strain male)
Procedure: (§1) Anti-passive cutaneous anaphylaxis (PCA) activity in rats (Materials and Method)
(§2) Wistar strain male rats (6 weeks old) were purchased from Shizuoka Experimental Animal Agricultural Cooperative (Japan), habituated to a breeding environment for 1 week before using for the experiment.
(§3) (2) Preparation of antiserum
(§4) Preparation of antiserum was carried out according to the method described in J. Immunol. 106, 1002-1011 (1971).
(§5) Thus, Ascaris suum extract was dinitrophenylated (DNP-As) and infused subcutaneously together with dead Bordetella pertussis at four sites on the foot-pad of the Wistar strain male rats. After 5 days, the rats were boostered with DNP-As (1 mg) at the dorsal muscle for additional sensitization. After 3 days, blood samples were collected and serum was separated which was used as anti DNP-As antiserum. The titer of the antiserum was measured by rats 48-hours PCA and found to be 1:200.
(§6) Rats were sensitized with 35 times dilution of anti DNA-As antiserum administered at two sites in the pre-clipped right dorsal skin. After 48 hours, DNP-As (500 μg in 0.5% Evans blue-physiological saline (1 ml) was administered into caudal vein to elicit the reaction. Then, 30 minutes later, the animals were decapitated, the dorsal skin was peeled, two sensitized areas as well as one control area were cut off and analyzed for Evans blue exudation which was used as an indivative of the reaction according to the method disclosed in Microbiol. Immunol. 22, 89-101 (1978). Thus, cut skins were treated with 1N-KOH (1 ml) and incubated at 37° C. for 16 hours to dissolve the skin tissue. A mixed solution (9 ml) of 0.6N-phosphoric acid-acetone (5: 13) was added and the mixture was centrifuged (300 r.p.m.) for 15 minutes. The supernatant was assayed for absorption at 620 nm and the exudation of Evans blue was determined. Test compounds (I) of the present invention were administered perorally as a suspension in 0.5% tragacanth 1 hour before the elicitation.
For `COc1ccc(-c2csc(NC(=O)c3nnn[nH]3)n2)cc1` [Ib-4], the inhibition in vivo at 20 mg/kg was 92%.
`O=C(Nc1nc(-c2ccccc2)cs1)c1nnn[nH]1` [Ib-1, N-(4-phenyl-2-thiazolyl)-1H-tetrazole-5-carboxamide] showed an inhibition in vivo at 20 mg/kg of 66%.
`Cc1ccc(-c2csc(NC(=O)c3nnn[nH]3)n2)cc1` [Ib-5, N-(4-(4-Methylphenyl)-2-thiazolyl)-1H-tetrazole-5-carboxamide] gave an inhibition in vivo at 20 mg/kg of 89%.
In the case of `O=C(Nc1nc(-c2ccc(Cl)cc2)cs1)c1nnn[nH]1` [Ib-7, N-(4-(4-chlorophenyl)-2-thiazolyl)-1H-tetrazole-5-carboxamide], the inhibition in vivo at 20 mg/kg is reported as 70%.
For `Cc1sc(NC(=O)c2nnn[nH]2)nc1-c1ccccc1` [Ib-12, N-(5-methyl-4-phenyl-2-thiazolyl)-1H-tetrazole-5-carboxamide], the inhibition in vivo at 20 mg/kg was 51%.

Same assay, conditions: Rattus norvegicus, po, 30 mg/kg, P.O., 1 hour before the elicitation
For `Cc1ccc(-c2csc(C(=O)Nc3nnn[nH]3)n2)cc1` [Ib-13, 4-(4-Methylphenyl)-N-(1H-tetrazole-5-yl)-2-thiazolecarboxamide], the inhibition in vivo at 30 mg/kg was 60%.
`COc1ccc(-c2csc(C(=O)Nc3nnn[nH]3)n2)cc1` [Ib-14, 4-(4-methoxyphenyl)-N (1H-tetrazole-5-yl)-2-thiazolecarboxamide] showed an inhibition in vivo at 30 mg/kg of 50%.

Same assay, conditions: Rattus norvegicus, po, 50 mg/kg, P.O., 1 hour before the elicitation
`COc1ccc(/C=C/C(=O)Nc2ccccc2C(=O)O)cc1OC` [Tranilast, reference compound] was tested, and the inhibition in vivo at 50 mg/kg was 0%.

Each compound was assayed on 48-Hours PCA (passive cutaneous anaphylaxis) (assay: Test Example 1: Anti-passive cutaneous anaphylaxis (PCA) activity in rats, 48-Hours PCA (Ia compounds)). Conditions: Rattus norvegicus, po, 15 mg/kg, perorally, 1 hour before the elicitation.
Assay type: in vivo, rat (Wistar strain male)
Procedure: as §1, §2, §3, §4, §5
as §6, with “μg in 0.5 % Evans blue-physiological” for “μg in 0.5% Evans blue-physiological”
Compound `O=C(Nc1csc(-c2cccnc2)n1)c1nnn[nH]1` [Ia-23, N-(2-(3-Pyridyl)-4-thiazolyl)-1H-tetrazole-5-carboxamide] has an inhibition in vivo at 15 mg/kg of 40%.
Work on `O=C(Nc1csc(-c2cccs2)n1)c1nnn[nH]1` [Ia-25, N-(2-(2-thienyl)-4-thiazolyl)-1H-tetrazole-5-carboxamide] yielded an inhibition in vivo at 15 mg/kg of 43%.
Work on `CC(C)(C)c1ccc(-c2nc(NC(=O)c3nnn[nH]3)cs2)cc1` [Ia-17, N-(2-(4-(1,1-dimethylethyl)phenyl)-4-thiazolyl)-1H-tetrazole-5-carboxamide] yielded an inhibition in vivo at 15 mg/kg of 47%.
`CC(C)c1ccc(-c2nc(NC(=O)c3nnn[nH]3)cs2)cc1` [Ia-16, N-(2-(4-(1-methylethyl)phenyl)-4-thiazolyl) 1H-tetrazole-5-carboxamide] was tested, and the inhibition in vivo at 15 mg/kg was 46%.
`Cc1nc(NC(=O)c2nnn[nH]2)cs1` [Ia-1, N-(2-Methyl-4-thiazolyl)-1H-tetrazole-5-carboxamide] showed an inhibition in vivo at 15 mg/kg of 60%.
With `O=C(Nc1csc(-c2ccc3ccccc3n2)n1)c1nnn[nH]1` [Ia-26, N-(2-(2-quinolyl)-4-thiazolyl)-1H-tetrazole-5-carboxamide] the inhibition in vivo at 15 mg/kg was 42%.
In the case of `Cc1cccc(-c2nc(NC(=O)c3nnn[nH]3)cs2)c1` [Ia-4, N-(2-(3-methylphenyl)-4-thiazolyl)-1H-tetrazole-5-carboxamide], the inhibition in vivo at 15 mg/kg is reported as 39%.
Compound `O=C(Nc1csc(-c2ccc(Cl)cc2)n1)c1nnn[nH]1` [Ia-15, N-(2-(4-chlorophenyl)-4-thiazolyl)-1H-tetrazole-5-carboxamide] has an inhibition in vivo at 15 mg/kg of 50%.
In the case of `Cc1ccccc1-c1nc(NC(=O)c2nnn[nH]2)cs1` [Ia-3, N-(2-(2-methylphenyl)-4-thiazolyl)-1H-tetrazole-5-carboxamide], the inhibition in vivo at 15 mg/kg is reported as 78%.
In the case of `COc1ccc(-c2nc(NC(=O)c3nnn[nH]3)cs2)cc1` [Ia-8], the inhibition in vivo at 15 mg/kg is reported as 80%.

Same assay, conditions: Rattus norvegicus, po, 25 mg/kg, perorally, 1 hour before the elicitation
In the case of `Cc1ccc(-c2nc(NC(=O)c3nnn[nH]3)cs2)cc1` [Ia-5], the inhibition in vivo at 25 mg/kg is reported as 90%.
`Cc1ccc(-c2nc(NC(=O)c3nnn[nH]3)c(C)s2)cc1` [Ia-19, N-(2-(4-methylphenyl)-5-methyl-4-thiazolyl)-1H-tetrazole-5-carboxamide] was tested, and the inhibition in vivo at 25 mg/kg was 61%.

Same assay, conditions: Rattus norvegicus, po, 50 mg/kg, 1 hour before the elicitation
`COc1ccc(/C=C/C(=O)Nc2ccccc2C(=O)O)cc1OC` [Tranilast, reference compound] was tested, and the inhibition in vivo at 50 mg/kg was 0%.

What follows are compounds tested on 48-Hours PCA (passive cutaneous anaphylaxis) (assay: Test Example 3: Anti-passive cutaneous anaphylaxis (PCA) activity in rats, 48-Hours PCA (Ic compounds)). Conditions: 30 mg/kg, P.O., 1 hour before the elicitation.
Assay type: in vivo, rat (Wistar strain male)
Procedure: as §1, §2, §3, §4, §5
as §6, with “with” for “with 1N-KOH”, “mil)” for “ml) and”, “0.6 N-phosphoric” for “0.6N-phosphoric”
For `COc1ccc(-c2nc(C)c(NC(=O)c3nnn[nH]3)s2)cc1` [Ic-14, N-(2-(4-Methoxyphenyl)-4-methyl-5-thiazolyl)-1H-tetrazole-5-carboxamide], the “Inhibition (%)” value was 50%.
`Cc1ccc(-c2nc(C)c(NC(=O)c3nnn[nH]3)s2)cc1` [Ic-13, N-(4-methyl-2-(4-methylphenyl)-5-thiazolyl)-1H-tetrazole-5-carboxamide] was tested, and the “Inhibition (%)” value was 52%.
In the case of `Cc1ccc(-c2nc(C)c(C(=O)Nc3nnn[nH]3)s2)cc1` [Ic-5, 4-methyl-2-(4-methylphenyl)-N-(1H-tetrazole-5-yl)-5-thiazolecarboxamide], the “Inhibition (%)” value is reported as 49%.
In the case of `COc1ccc(-c2nc(C)c(C(=O)Nc3nnn[nH]3)s2)cc1` [Ic-6, 2-(4-Methoxyphenyl)-4-methyl-N-(1H-tetrazole-5-yl)-5-thiazolecarboxamide], the “Inhibition (%)” value is reported as 56%.

Same assay, conditions: 50 mg/kg, P.O., 1 hour before the elicitation
For `COc1ccc(/C=C/C(=O)Nc2ccccc2C(=O)O)cc1OC` [Tranilast, reference compound], the “Inhibition (%)” value was 0%.
